In patent US20230295137A1, “COVALENT EGFR INHIBITORS AND METHODS OF USE THEREOF” (DANA-FARBER CANCER INSTITUTE, INC., priority 2020, published 2023):

Legend:
[1] = test system: EGFR mutant L858R Ba/F3 cells; assay: Ba/F3 cell proliferation (Cell Titer Glo), EGFR L858R; format: cell-based, murine; conditions: Mus musculus, BaF3, Ba/F3 cells with EGFR L858R, 72 hours exposure, read-out: L BaF3
Excerpt: (§1) The selectivity between wild-type EGER and EGFR containing one or more mutations as described herein can also be measured using cellular proliferation assays where cell proliferation is dependent on kinase activity. For example, murine Ba/F3 cells transfected with a suitable version of wild-type EGFR (such as VIII; containing a WT EGFR kinase domain), or Ba/F3 cells transfected with L858R/T790M, Del/T790M/L718Q, L858R/T790M/L718Q, L858R/T790M/C797S, Del/T790M/C797S, L858R/T790M/I941R, or Exon 19 deletion/T790M can be used.
(§2) The EGFR mutant L858R Ba/F3 cells have been previously described (Zhou, W., et al. Nature 482, 2009, 1070-1074). […]
(§3) Growth and inhibition of growth was assessed by the Cell Titer Glo assay (Promega, Madison, WI) and was performed according to the manufacturer's instructions. The Cell Titer Glo assay is a luminescence-based method used to determine the number of viable cells based on quantitation of the ATP present, which is directly proportional to the amount of metabolically active cells present. Ba/F3 cells of different EGFR genotypes were exposed to compounds for 72 hours and the number of cells used per experiment was determined empirically as has been previously established (Zhou, et al., Nature 2009). […]

[2] = test system: EGFR L858R/C797S Ba/F3 cells; assay: Ba/F3 cell proliferation (Cell Titer Glo), EGFR L858R/C797S; format: cell-based, murine; conditions: Mus musculus, BaF3, Ba/F3 cells with EGFR L858R/C797S, 72 hours exposure, read-out: L/C797S
Excerpt: as §1, §2, §3

## C=CC(=O)Nc1csc(C(=O)Nc2nc3cccc(C)c3n2[C@@H]2CCCCN(C(C)=O)C2)c1 [Compound 009]
[1]
  EC50: 62 nM
[2]
  EC50: 173 nM

## C=CC(=O)Nc1cc(C(=O)Nc2nc3cccc(C)c3n2[C@@H]2CCCCN(C(C)=O)C2)cs1 [Compound 002]
[1]
  EC50: 110 nM
[2]
  EC50: 430 nM
